Measured values as given in publication PMC11232398, “Antimalarial activity of cecropin antimicrobial peptides derived from Anopheles mosquitoes” (Antimicrobial Agents and Chemotherapy, 2024).
Where two headings read alike, the source gives them in different places.

Assays:
[1] = test system: P. falciparum 3D7 ring, trophozoite and schizont stages; assay: Stage-specific parasite inhibition assay; format: cell-based, Plasmodium falciparum; conditions: 40 µM for 12 hours at ring, trophozoite or schizont stage; reinvasion parasitemia at 50 hpi and after 1:40 dilution and 4 days
Protocol: The activity of An-cecB against different blood stage parasites was evaluated. Parasites were exposed to An-cecB at a lethal concentration of 40 µM for 12 hours at the ring stage [[…] (hours post invasion)], trophozoite stage (17–29 hpi), and schizont stage (29–41 hpi) (Fig. 2a). […] Parasites were then washed and cultured for 4 days […].
To analyze the stage-specific parasite inhibition, highly synchronized ring-stage parasites of the 3D7 strain were cultured in 48-well plates with a starting parasitemia of 0.5% ~ 1% at a hematocrit of 2%. The tested peptide at a concentration of 40 µM was added to ring stage parasites (5 hpi), trophozoites (17 hpi), and schizonts (29 hpi). After treatment for 12 hours, the parasites were washed three times to remove the peptide and the re-invaded parasites (50 hpi) were analyzed. The parasitemia (50hpi) was diluted 1:40 by new RBCs and cultured for a further 4 days. CM was used as a blank control. Parasitemia was counted under a microscope.

[2] = test system: methyl-β-cyclodextrin-treated RBCs; assay: Hemolytic activity on cholesterol-depleted erythrocytes; format: cell-based, human; conditions: RBCs treated with 7.5 mM methyl-β-cyclodextrin for 2 hours at 37°C
Text: Cholesterol is the main component of the RBC membrane and is important for maintaining its stability ([39]). Plasmodium falciparum infection efficiently depletes the red blood cells of cholesterol, which renders […] membranes susceptible to lysis ([40]). Therefore, methyl-β-cyclodextrin treatment was used to simulate the RBC cholesterol depletion caused by infection with Plasmodium. RBCs were washed once and then resuspended with PBS at 0.5% hematocrit. After treatment with the indicated concentration (7.5 mM) of methyl-β-cyclodextrin (Sigma) in RPMI for 2 hours at 37°C, the treated RBCs were washed with PBS and hemolysis assays were performed as described above. Two independent tests with five technical replicates were performed for each hemolysis assay.

[3] = Acute oral toxicity test in mice; format: in vivo, BALB/c mice; conditions: for survival number: n = 6, 14 days; for Body weight Day0 / Body weight Day7 / Body weight Day14: n = 6, in g (unit assumed)
Protocol: Mice were housed under standard conditions at a temperature of 24 ± 2°C and a humidity of 50%–80%. Lighting was alternated between day and night every 12 hours. All mouse groups consisted of six animals per cage, and these were fed ad libitum with SPF-grade stock diet and water. All the experimental mice were adapted to the animal room for 1 to 2 weeks before the experiment.
For the acute toxicity test, the mice were divided into four groups. Each group contained six mice. Mice were fasted for 2 hours before feeding with a single oral dose of peptide. The mice in each group were fed with peptide at a single oral dose of 500, 200, and 100 mg/kg body weight. Normal saline (1 mL) was used as control. The general behavior of each mouse was observed continuously for the first 1 hour, then intermittently every 4 hours, and thereafter over a period of 24 hours ([43]).

[4] = test system: Plasmodium berghei (ANKA); format: in vivo; conditions: for Inhibition (%) of P. berghei growth: parasitemia on day 4, BALB/c mice
Protocol: The in vivo antimalarial activity of peptides was evaluated using a 4-day suppressive test in P. berghei-infected mouse model mice ([44]). The mice were divided into five groups of six mice. Donor mice were infected with 200 µL of P. berghei parasite inoculum by intraperitoneal injection. Parasitized blood was collected from the tail vein of donor mice and diluted with 0.9% sodium chloride solution. Mice were then infected with saline suspension of 1 × 10^7 parasitized erythrocytes (0.2 mL) by intraperitoneal injection (Day0). Four hours after infection, each of the three groups of mice was treated with peptide by intraperitoneal injection at daily doses of 10, 25, and 50 mg/kg for 4 consecutive days. Positive control mice were treated with chloroquine at daily doses of 10 mg/kg and negative control mice with normal saline. On day 4 (96 hours post infection), the parasitemia of each mouse was determined under a light microscope by examination of Giemsa’s solution-stained thin blood smears prepared from mouse tail blood ([28]). The mean parasitemia in each group of mice was used to calculate the % suppression for each dose using the following formula:
%suppression = (parasitemia of negative control − parasitemia of test) * 100/parasitemia of negative control.
The antimalarial activity of the peptides was determined from the ratio of the percentage of parasite reduction in treated and negative control groups ([44]). Results were expressed as median (range) values.

[5] = test system: healthy erythrocytes (human RBCs)
Protocol: Hemolysis assays were performed using human RBCs according to previous reports ([38]). Briefly, serial dilutions of peptides were incubated with 2% hematocrit RBCs (in PBS) at 37°C for three different time points (15, 30, and 60 min) in triplicates. After incubation, the RBCs were centrifuged for 10 min at 1,000 × g and the absorbance of the supernatants at 540 nm was read by a spectrophotometer to assess the level of the released hemoglobin. Maximum hemolysis was determined by substituting the sample with 1% Triton X-100, which completely lyses the cells. […] Hemolysis of peptides was calculated using the following formula: Hemolysis (%) = (A540 of peptide- A540 of PBS) * 100/A540 of Triton X-100. Two independent tests with three technical replicates were performed for each hemolysis assay.

Protocol for HEK293T cells: (§1) The mammalian cell lines HepG2 and HEK293T were used for cytotoxicity tests. The cells were cultured in Dulbecco’s modified Eagle medium supplemented with 10% fetal bovine serum and 1% penicillin/streptomycin in an incubator at 37°C with 5% CO2. Cells were seeded at a density of 1 × 10^5 cells/mL per well into a 96-well plate overnight and treated with different concentrations of peptides for 48 hours. To analyze the CC50 of peptides, a series of concentrations of peptides (0, 5, 10, 20, 30, 40, 50, 60, and 70 µM) were set to detect their cytotoxic concentrations. Then, 10% CCK-8 solution was added into each well and incubated for another 2 hours. The absorbance was monitored by a microplate reader at 450 nm. PBS was used as a negative control and the inhibition of each drug was normalized to that of the PBS control. CC50 was calculated by GraphPad Prism. Two independent assays with three technical replicates each time were conducted.
Protocol for HepG2 cells: as §1

Sequence: APRWKFGKRLEKLGRNVFRAA KKALPVIAGYKAL-NH2 [An-cecB]
- activity against different blood stage parasites [1]: All parasite stages were killed
- hemolysis of cholesterol-depleted erythrocytes [2]: significantly higher than that of controls
- survival number ([3]; single oral dose 100 mg/kg): 6
- Body weight Day0 ([3]; single oral dose 100 mg/kg): 20.45±1.56
- Body weight Day7 ([3]; single oral dose 100 mg/kg): 20.9±1.62
- Body weight Day14 ([3]; single oral dose 100 mg/kg): 21.98±0.91
- survival number ([3]; single oral dose 200 mg/kg): 6
- Body weight Day14 ([3]; single oral dose 200 mg/kg, P < 0.01 vs control): 18.4±2.1
- Body weight Day0 ([3]; single oral dose 200 mg/kg): 20.45±1.56
- Body weight Day7 ([3]; single oral dose 200 mg/kg): 19.25±1.8
- survival number ([3]; single oral dose 500 mg/kg, one mouse died on Day8): 5
- Body weight Day14 ([3]; single oral dose 500 mg/kg, P < 0.01 vs control): 16.54±3.24
- Body weight Day0 ([3]; single oral dose 500 mg/kg): 19.55±2.01
- Inhibition (%) of P. berghei growth ([4]; 10 mg/kg daily i.p. for 4 consecutive days): 0.63%
- Inhibition (%) of P. berghei growth ([4]; 25 mg/kg daily i.p. for 4 consecutive days): 5.12%
- mortality of infected mice in the 4-day suppressive test ([4]; in vivo): all infected mice died before the end of the experiment
- CC50 (HEK293T cells): 57.33 µM
- cytotoxicity to HEK293T cells (HEK293T cells): dose-dependently inhibited the cell viability
- CC50 (HepG2 cells): 60.43 µM
- hemolysis rate ([5]; 10 µM): less than 2%
- hemolysis rate ([5]; 20 µM): less than 2%
- hemolysis rate ([5]; 40 µM): less than 5%
